# Reference: ChEMBL document CHEMBL1201862, “PubChem BioAssay data set” (2004)
#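 Protocol summary: plate cells (96-well), add compound at 5 concentrations, incubate 48 h, interpolate endpoints linearly. The concentration for 50% growth inhibition is given as GI50.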 Calls of active or inactive are those of the source. Rule as the data show it: active = GI50 up to about 1.1 µM and inactive = higher.
# Key:
# Assay in all cases: DTP human tumour cell line panel, 48 h
# A549 = system: A549
# U-251 = system: U-251
# OVCAR-4 = system: OVCAR-4
# MOLT-4 = system: MOLT-4
# OVCAR-8 = system: OVCAR-8
# MDA-MB-231 = system: MDA-MB-231
# TK-10 = system: TK-10
# RPMI-8226 = system: RPMI-8226
# SR = system: SR
# PC-3 = system: PC-3
# K562 = system: K562
# CAKI-1 = system: CAKI-1
# HOP-62 = system: HOP-62
# SNB-19 = system: SNB-19
# UACC-257 = system: UACC-257
# NCI-H522 = system: NCI-H522
# IGROV-1 = system: IGROV-1
# DU-145 = system: DU-145
# SNB-75 = system: SNB-75
# NCI/ADR-RES = system: NCI/ADR-RES
# HT-29 = system: HT-29
# NCI-H23 = system: NCI-H23
# RXF 393 = system: RXF 393
# HCT-116 = system: HCT-116
# 786-0 = system: 786-0
# SK-MEL-28 = system: SK-MEL-28
# UACC-62 = system: UACC-62
# Malme-3M = system: Malme-3M
# ACHN = system: ACHN
# M14 = system: M14
# SW-620 = system: SW-620
# SF-268 = system: SF-268
# HL-60 = system: HL-60
# HCT-15 = system: HCT-15
# NCI-H226 = system: NCI-H226
# CCRF-CEM = system: CCRF-CEM
# MCF7 = system: MCF7
# COLO 205 = system: COLO 205
# UO-31 = system: UO-31
# KM12 = system: KM12
# SK-MEL-5 = system: SK-MEL-5
# EKVX = system: EKVX
# T47D = system: T47D
# OVCAR-5 = system: OVCAR-5
# MDA-MB-435 = system: MDA-MB-435
# SK-OV-3 = system: SK-OV-3
# Hs-578T = system: Hs-578T
# SF-295 = system: SF-295
# LOX IMVI = system: LOX IMVI
# SK-MEL-2 = system: SK-MEL-2
# SF-539 = system: SF-539
# NCI-H460 = system: NCI-H460
# OVCAR-3 = system: OVCAR-3
# SN12C = system: SN12C
# HCC 2998 = system: HCC 2998
# MDA-N = system: MDA-N
# HOP-92 = system: HOP-92
# A498 = system: A498
smiles,measurement,setting,value
COc1ccccc1/C=C\C(=O)C1COCN1 (stereo not given),GI50,A549,23.1 µM (inactive)
same,GI50,U-251,11.1 µM (inactive)
same,GI50,OVCAR-4,16.3 µM (inactive)
same,GI50,MOLT-4,3.95 µM (inactive)
same,GI50,OVCAR-8,14.5 µM (inactive)
same,GI50,MDA-MB-231,17.6 µM (inactive)
same,GI50,TK-10,21.2 µM (inactive)
same,GI50,RPMI-8226,2.24 µM (inactive)
same,GI50,SR,1.95 µM (inactive)
same,GI50,PC-3,13.2 µM (inactive)
same,GI50,K562,6.98 µM (inactive)
same,GI50,CAKI-1,18.3 µM (inactive)
same,GI50,HOP-62,21.4 µM (inactive)
same,GI50,SNB-19,13.1 µM (inactive)
same,GI50,UACC-257,18.1 µM (inactive)
same,GI50,NCI-H522,16 µM (inactive)
same,GI50,IGROV-1,16.1 µM (inactive)
same,GI50,DU-145,17.3 µM (inactive)
same,GI50,SNB-75,18.6 µM (inactive)
same,GI50,NCI/ADR-RES,15.2 µM (inactive)
same,GI50,HT-29,6.35 µM (inactive)
same,GI50,NCI-H23,> 100 µM (inactive)
same,GI50,RXF 393,21 µM (inactive)
same,GI50,HCT-116,6.97 µM (inactive)
same,GI50,786-0,23.9 µM (inactive)
same,GI50,SK-MEL-28,18 µM (inactive)
same,GI50,UACC-62,14.5 µM (inactive)
same,GI50,Malme-3M,19.3 µM (inactive)
same,GI50,ACHN,10.7 µM (inactive)
same,GI50,M14,50.8 µM (inactive)
same,GI50,SW-620,4.36 µM (inactive)
same,GI50,SF-268,21 µM (inactive)
same,GI50,HL-60,19 µM (inactive)
same,GI50,HCT-15,14.7 µM
same,GI50,NCI-H226,18.7 µM (inactive)
same,GI50,CCRF-CEM,3.77 µM (inactive)
same,GI50,MCF7,5.53 µM (inactive)
same,GI50,COLO 205,6.35 µM (inactive)
same,GI50,UO-31,16.4 µM (inactive)
same,GI50,KM12,4.39 µM (inactive)
same,GI50,SK-MEL-5,10.6 µM (inactive)
same,GI50,EKVX,19.4 µM (inactive)
same,GI50,T47D,1.45 µM (inactive)
same,GI50,OVCAR-5,24.7 µM (inactive)
same,GI50,MDA-MB-435,6.9 µM (inactive)
same,GI50,SK-OV-3,10.2 µM (inactive)
same,GI50,Hs-578T,16.3 µM (inactive)
same,GI50,SF-295,26.1 µM (inactive)
same,GI50,LOX IMVI,4.83 µM (inactive)
same,GI50,SK-MEL-2,21.3 µM (inactive)
same,GI50,SF-539,20.5 µM (inactive)
same,GI50,NCI-H460,30.9 µM (inactive)
same,GI50,OVCAR-3,8.24 µM (inactive)
same,GI50,SN12C,16.4 µM (inactive)
COc1ccc(C(=O)/C=C/c2ccc(OCC(=N)N)cc2)cc1OC,GI50,A549,5.97 µM (inactive)
same,GI50,OVCAR-8,3.62 µM (inactive)
same,GI50,MDA-MB-231,> 10 µM (inactive)
same,GI50,TK-10,> 10 µM (inactive)
same,GI50,RPMI-8226,2.34 µM (inactive)
same,GI50,SR,1.64 µM (inactive)
same,GI50,HCC 2998,6.4 µM (inactive)
same,GI50,PC-3,3.84 µM (inactive)
same,GI50,K562,2.37 µM (inactive)
same,GI50,CAKI-1,5.05 µM (inactive)
same,GI50,HOP-62,5.75 µM (inactive)
same,GI50,UACC-257,6.79 µM (inactive)
same,GI50,IGROV-1,> 10 µM (inactive)
same,GI50,DU-145,> 10 µM (inactive)
same,GI50,SNB-75,4.53 µM (inactive)
same,GI50,HT-29,3.1 µM (inactive)
same,GI50,NCI-H23,3.33 µM (inactive)
same,GI50,RXF 393,4.63 µM (inactive)
same,GI50,786-0,5.04 µM (inactive)
same,GI50,SK-MEL-28,8.73 µM (inactive)
same,GI50,MDA-N,3.6 µM (inactive)
same,GI50,UACC-62,> 10 µM (inactive)
same,GI50,Malme-3M,> 10 µM (inactive)
same,GI50,M14,5.87 µM (inactive)
same,GI50,SW-620,3.84 µM (inactive)
same,GI50,SF-268,3.61 µM (inactive)
same,GI50,HL-60,1.95 µM (inactive)
same,GI50,HCT-15,> 10 µM
same,GI50,CCRF-CEM,2.61 µM (inactive)
same,GI50,MCF7,3.24 µM (inactive)
same,GI50,COLO 205,3.34 µM (inactive)
same,GI50,KM12,2.64 µM (inactive)
same,GI50,SK-MEL-5,7.93 µM (inactive)
same,GI50,EKVX,7.36 µM (inactive)
same,GI50,T47D,3.86 µM (inactive)
same,GI50,SK-OV-3,4.01 µM (inactive)
same,GI50,SF-295,> 10 µM (inactive)
same,GI50,LOX IMVI,2.52 µM (inactive)
same,GI50,SN12C,> 10 µM (inactive)
CC(C)=C/C(CC(O)(C(F)(F)F)C(F)(F)F)=N\O,GI50,A549,> 100 µM (inactive)
same,GI50,U-251,> 100 µM (inactive)
same,GI50,OVCAR-4,> 100 µM (inactive)
same,GI50,MOLT-4,> 100 µM (inactive)
same,GI50,OVCAR-8,> 100 µM (inactive)
same,GI50,MDA-MB-231,> 100 µM (inactive)
same,GI50,TK-10,> 100 µM (inactive)
same,GI50,RPMI-8226,> 100 µM (inactive)
same,GI50,SR,> 100 µM (inactive)
same,GI50,HCC 2998,> 100 µM (inactive)
same,GI50,K562,> 100 µM (inactive)
same,GI50,HOP-62,> 100 µM (inactive)
same,GI50,SNB-19,> 100 µM (inactive)
same,GI50,UACC-257,> 100 µM (inactive)
same,GI50,IGROV-1,> 100 µM (inactive)
same,GI50,DU-145,> 100 µM (inactive)
same,GI50,HOP-92,> 100 µM (inactive)
same,GI50,SNB-75,> 100 µM (inactive)
same,GI50,NCI/ADR-RES,> 100 µM (inactive)
same,GI50,HT-29,> 100 µM (inactive)
same,GI50,NCI-H23,> 100 µM (inactive)
same,GI50,RXF 393,> 100 µM (inactive)
same,GI50,HCT-116,> 100 µM (inactive)
same,GI50,786-0,> 100 µM (inactive)
same,GI50,SK-MEL-28,> 100 µM (inactive)
same,GI50,UACC-62,> 100 µM (inactive)
same,GI50,Malme-3M,> 100 µM (inactive)
same,GI50,ACHN,> 100 µM (inactive)
same,GI50,M14,> 100 µM (inactive)
same,GI50,SW-620,> 100 µM (inactive)
same,GI50,SF-268,> 100 µM (inactive)
same,GI50,HL-60,> 100 µM (inactive)
same,GI50,HCT-15,> 100 µM
same,GI50,NCI-H226,> 100 µM (inactive)
same,GI50,CCRF-CEM,> 100 µM (inactive)
same,GI50,MCF7,> 100 µM (inactive)
same,GI50,COLO 205,> 100 µM (inactive)
same,GI50,UO-31,> 100 µM (inactive)
same,GI50,KM12,> 100 µM (inactive)
same,GI50,SK-MEL-5,> 100 µM (inactive)
same,GI50,EKVX,> 100 µM (inactive)
same,GI50,T47D,> 100 µM (inactive)
same,GI50,OVCAR-5,> 100 µM (inactive)
same,GI50,MDA-MB-435,> 100 µM (inactive)
same,GI50,SK-OV-3,> 100 µM (inactive)
same,GI50,Hs-578T,> 100 µM (inactive)
same,GI50,SF-295,> 100 µM (inactive)
same,GI50,LOX IMVI,> 100 µM (inactive)
same,GI50,SF-539,> 100 µM (inactive)
same,GI50,NCI-H460,> 100 µM (inactive)
same,GI50,A498,50.9 µM (inactive)
same,GI50,SN12C,> 100 µM (inactive)
